This is an account of results in paper PMC9329436, “Optimization of the 4-anilinoquin(az)oline scaffold as epidermal growth factor receptor (EGFR) inhibitors for chordoma utilizing a toxicology profiling assay platform” (Scientific Reports, 2022).

Structures are written as SMILES. Where two headings read alike, the source gives them in different places.

Holding throughout (format): biochemical
The target in test [1] is 320 wild-type protein kinases (Homo sapiens, UniProt O43293). To be noted: singlicate. An excerpt: (§1) Table S4. Profiling of two compounds at two concentrations against 320 wild-type protein kinases; singlicate measurement; Residual activities (% of control).
Test [2] concerns the target T1, 320 wild-type protein kinases (Homo sapiens, UniProt P29322).
T1 sequence (P29322 28-1005): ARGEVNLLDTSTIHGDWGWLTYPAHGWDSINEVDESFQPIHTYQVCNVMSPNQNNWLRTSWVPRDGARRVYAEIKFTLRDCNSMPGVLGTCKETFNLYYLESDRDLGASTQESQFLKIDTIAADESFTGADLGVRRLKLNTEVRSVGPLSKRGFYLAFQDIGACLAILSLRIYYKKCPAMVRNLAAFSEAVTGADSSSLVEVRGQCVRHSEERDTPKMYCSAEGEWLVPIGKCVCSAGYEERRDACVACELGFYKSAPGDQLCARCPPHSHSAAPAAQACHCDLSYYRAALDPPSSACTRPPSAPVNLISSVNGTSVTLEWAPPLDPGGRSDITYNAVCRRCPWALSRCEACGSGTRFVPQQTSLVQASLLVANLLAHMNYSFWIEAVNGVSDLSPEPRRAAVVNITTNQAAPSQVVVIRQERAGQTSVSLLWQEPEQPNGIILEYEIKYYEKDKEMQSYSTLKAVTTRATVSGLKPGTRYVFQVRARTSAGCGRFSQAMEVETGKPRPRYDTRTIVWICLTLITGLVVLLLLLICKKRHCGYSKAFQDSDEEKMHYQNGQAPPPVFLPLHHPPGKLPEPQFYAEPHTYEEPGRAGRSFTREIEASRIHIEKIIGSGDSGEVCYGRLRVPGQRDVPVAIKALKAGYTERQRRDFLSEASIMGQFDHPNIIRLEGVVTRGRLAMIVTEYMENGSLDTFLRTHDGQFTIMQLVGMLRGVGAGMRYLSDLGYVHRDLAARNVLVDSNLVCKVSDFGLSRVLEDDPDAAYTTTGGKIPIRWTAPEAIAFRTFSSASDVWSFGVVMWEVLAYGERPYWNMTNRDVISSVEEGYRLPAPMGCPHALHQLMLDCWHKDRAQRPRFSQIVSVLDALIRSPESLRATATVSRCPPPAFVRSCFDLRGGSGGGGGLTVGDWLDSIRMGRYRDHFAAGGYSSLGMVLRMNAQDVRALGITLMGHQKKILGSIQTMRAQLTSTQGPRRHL
Particulars: singlicate.
Text: as §1

Test [3] concerns the target T2, 320 wild-type protein kinases (Homo sapiens, UniProt Q04771).
T2 sequence (Q04771 21-509): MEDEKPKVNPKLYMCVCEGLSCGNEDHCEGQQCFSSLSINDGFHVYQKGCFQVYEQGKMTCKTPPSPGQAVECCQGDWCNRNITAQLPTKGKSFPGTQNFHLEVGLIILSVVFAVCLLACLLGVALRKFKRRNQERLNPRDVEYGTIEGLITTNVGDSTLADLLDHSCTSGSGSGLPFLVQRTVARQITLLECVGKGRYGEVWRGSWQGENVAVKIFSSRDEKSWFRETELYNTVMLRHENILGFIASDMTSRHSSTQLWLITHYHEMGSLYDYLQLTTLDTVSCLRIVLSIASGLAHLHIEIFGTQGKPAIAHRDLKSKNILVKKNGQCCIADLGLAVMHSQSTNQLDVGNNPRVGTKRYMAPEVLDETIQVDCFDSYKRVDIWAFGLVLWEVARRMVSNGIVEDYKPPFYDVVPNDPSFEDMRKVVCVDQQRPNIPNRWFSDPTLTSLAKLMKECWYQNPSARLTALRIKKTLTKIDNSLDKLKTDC
To be noted: singlicate.
Text: as §1

Test [4] deals with 320 wild-type protein kinases (Homo sapiens, UniProt Q86Z02). Particulars: singlicate.
Text: as §1

Test [5] addresses T3, 320 wild-type protein kinases (Homo sapiens, UniProt Q9UHD2).
T3 sequence (Q9UHD2 1-729): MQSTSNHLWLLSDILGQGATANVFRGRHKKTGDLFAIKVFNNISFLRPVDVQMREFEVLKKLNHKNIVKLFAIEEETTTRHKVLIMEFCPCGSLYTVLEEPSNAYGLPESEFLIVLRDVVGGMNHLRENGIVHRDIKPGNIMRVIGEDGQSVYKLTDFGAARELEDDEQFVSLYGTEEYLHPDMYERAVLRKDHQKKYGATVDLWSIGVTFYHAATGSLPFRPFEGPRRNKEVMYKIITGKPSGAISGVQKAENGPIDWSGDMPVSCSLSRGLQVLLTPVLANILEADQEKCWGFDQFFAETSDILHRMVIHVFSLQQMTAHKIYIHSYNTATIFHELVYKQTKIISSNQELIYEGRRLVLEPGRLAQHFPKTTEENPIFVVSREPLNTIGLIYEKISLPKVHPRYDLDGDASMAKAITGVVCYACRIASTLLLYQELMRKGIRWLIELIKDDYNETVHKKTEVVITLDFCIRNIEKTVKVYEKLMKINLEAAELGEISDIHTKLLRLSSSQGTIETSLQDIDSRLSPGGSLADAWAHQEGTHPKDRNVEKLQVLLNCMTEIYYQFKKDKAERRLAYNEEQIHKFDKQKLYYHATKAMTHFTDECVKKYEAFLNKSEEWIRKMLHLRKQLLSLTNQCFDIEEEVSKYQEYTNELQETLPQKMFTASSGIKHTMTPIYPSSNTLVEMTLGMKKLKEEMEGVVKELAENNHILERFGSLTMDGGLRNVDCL
Particulars: kinase TBK1, singlicate.
Text: as §1

320 wild-type protein kinases (Homo sapiens, UniProt O43293), sequence (O43293 whole entry): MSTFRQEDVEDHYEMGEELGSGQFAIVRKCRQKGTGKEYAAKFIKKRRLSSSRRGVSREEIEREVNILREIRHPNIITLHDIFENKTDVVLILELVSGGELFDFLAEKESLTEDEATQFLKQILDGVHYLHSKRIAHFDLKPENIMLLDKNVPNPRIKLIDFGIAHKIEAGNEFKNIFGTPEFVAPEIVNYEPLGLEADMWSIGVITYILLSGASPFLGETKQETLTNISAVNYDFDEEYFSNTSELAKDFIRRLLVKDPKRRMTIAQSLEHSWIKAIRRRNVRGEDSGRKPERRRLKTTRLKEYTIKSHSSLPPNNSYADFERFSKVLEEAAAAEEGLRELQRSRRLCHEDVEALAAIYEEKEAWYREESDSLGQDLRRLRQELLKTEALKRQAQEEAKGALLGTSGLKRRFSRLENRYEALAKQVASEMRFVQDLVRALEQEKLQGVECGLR
320 wild-type protein kinases (Homo sapiens, UniProt Q86Z02), sequence (Q86Z02 whole entry): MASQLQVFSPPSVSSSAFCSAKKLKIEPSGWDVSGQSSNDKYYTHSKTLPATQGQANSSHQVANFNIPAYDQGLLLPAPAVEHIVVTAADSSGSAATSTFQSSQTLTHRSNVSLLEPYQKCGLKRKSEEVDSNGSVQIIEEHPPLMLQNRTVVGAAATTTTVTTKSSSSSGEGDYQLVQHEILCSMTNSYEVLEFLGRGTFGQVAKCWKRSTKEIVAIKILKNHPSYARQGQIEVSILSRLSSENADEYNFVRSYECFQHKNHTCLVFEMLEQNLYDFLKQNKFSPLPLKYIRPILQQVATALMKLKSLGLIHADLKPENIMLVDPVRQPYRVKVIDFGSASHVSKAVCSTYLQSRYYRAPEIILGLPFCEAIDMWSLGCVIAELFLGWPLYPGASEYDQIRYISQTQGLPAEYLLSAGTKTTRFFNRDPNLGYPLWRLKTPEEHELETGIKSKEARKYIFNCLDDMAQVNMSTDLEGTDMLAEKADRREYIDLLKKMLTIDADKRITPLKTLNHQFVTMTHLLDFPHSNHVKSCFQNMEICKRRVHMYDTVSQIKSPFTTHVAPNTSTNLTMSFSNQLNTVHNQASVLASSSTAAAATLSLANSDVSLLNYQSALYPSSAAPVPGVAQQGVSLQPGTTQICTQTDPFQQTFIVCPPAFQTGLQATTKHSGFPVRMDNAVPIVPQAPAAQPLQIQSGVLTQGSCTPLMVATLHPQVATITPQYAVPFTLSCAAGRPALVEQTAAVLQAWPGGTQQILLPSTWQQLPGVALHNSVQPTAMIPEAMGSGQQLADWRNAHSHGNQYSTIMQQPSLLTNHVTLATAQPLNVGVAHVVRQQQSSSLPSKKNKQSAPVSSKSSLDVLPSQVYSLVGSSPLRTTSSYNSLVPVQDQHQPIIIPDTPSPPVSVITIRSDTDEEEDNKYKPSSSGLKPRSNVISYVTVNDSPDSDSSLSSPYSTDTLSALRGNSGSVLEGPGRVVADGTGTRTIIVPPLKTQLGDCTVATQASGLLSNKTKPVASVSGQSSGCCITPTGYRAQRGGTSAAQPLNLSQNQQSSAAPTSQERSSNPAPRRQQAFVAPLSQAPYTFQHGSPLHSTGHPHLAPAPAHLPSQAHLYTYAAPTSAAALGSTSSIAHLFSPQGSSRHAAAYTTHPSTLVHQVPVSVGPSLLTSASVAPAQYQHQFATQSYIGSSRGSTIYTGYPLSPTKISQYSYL

As to `C#Cc1cc(Nc2ncnc3cc(OC)c(OC)cc23)ccc1Cl` [Compound 45], the Residual activity is 114 % of control in test [1] (DAPK3, 1.0E-06 M); 112 % of control in test [1] (DAPK3, 1.0E-07 M); 103 % of control in test [2] (EPHA8, 1.0E-06 M); 112 % of control in test [2] (EPHA8, 1.0E-07 M); 93 % of control in test [3] (ACV-R1, 1.0E-06 M); 98 % of control in test [3] (ACV-R1, 1.0E-07 M). For the same compound, the Residual activity in test [4] (HIPK1, 1.0E-06 M) is given as 80 % of control; in test [4] (HIPK1, 1.0E-07 M), 79 % of control. Moreover, the “Residual activity, TBK1” value in test [5] (assay conc. 1.0E-06 M) is reported as 89 % of control; in test [5] (assay conc. 1.0E-07 M), 106 % of control.
As for `C#Cc1cc(Nc2ncnc3cc(I)ccc23)ccc1Cl` [Compound 41], the Residual activity is 109 % of control in test [1] (DAPK3, 1.0E-06 M); 110 % of control in test [1] (DAPK3, 1.0E-07 M); 118 % of control in test [2] (EPHA8, 1.0E-06 M); 110 % of control in test [2] (EPHA8, 1.0E-07 M); 86 % of control in test [3] (ACV-R1, 1.0E-06 M); 91 % of control in test [3] (ACV-R1, 1.0E-07 M). Moreover, the Residual activity in test [4] (HIPK1, 1.0E-06 M) is listed as 87 % of control; in test [4] (HIPK1, 1.0E-07 M), 98 % of control. In addition, the results for the “Residual activity, TBK1” value in test [5] (assay conc. 1.0E-06 M) and in test [5] (assay conc. 1.0E-07 M) were 98 % of control and 106 % of control, respectively.
